Measured values from patent US12161632B2, “Compositions and methods of treating cardiac fibrosis with ifetroban” (Cumberland Pharmaceuticals Inc., priority 2014, dated 2024).
“Also recorded” adds a separate entry of the source. Read-outs that look alike come from different tables or passages of the source.

Tests used:
[1] = test system: RV proteins (TP receptor, MHC, phospho-SMAD2/3, TSP-4); conditions: for TSP-4 protein expression in RV: high dose 25 mg/kg/day
Procedure: Mice underwent pulmonary arterial banding (PAB) or sham surgery, and were treated for 2 weeks with vehicle or ifetroban (competitive antagonist of TPα/TPβ) in the drinking water.
The effect of ifetroban treatment on known fibrotic and anti-fibrotic signaling pathways was examined.
In another arm of this example, low dose (3 mg/kg/day) ifetroban was administered to mice via the drinking water for 2 weeks following pulmonary artery banding.

[2] = test system: cultured cardiomyocytes given exogenous TGF-ß; test: TGF-ß signalling in cultured cardiomyocytes (PAI-1 expression, promoter luciferase); assay type: cell-based; conditions: compared to vehicle-treated cells
[3] = test system: right ventricle under load stress (pulmonary banding); test: Pulmonary banding load stress model: hemodynamics, heart fibrosis and macrophage infiltration (Example IV); assay type: in vivo; conditions: banded mice, 25 mg/kg/day in drinking water, 2 weeks
Procedure: FVB/N mice or mice with a GFP macrophage-specific lineage tracing marker (LysM-Cre) underwent pulmonary banding to directly increase load stress (or sham surgery for controls), and starting the following day received either vehicle or the thromboxane receptor antagonist Ifetroban sodium in their drinking water (25 mg/kg/day). After 2 weeks, noninvasive hemodynamics were obtained by transthoracic echocardiography and invasive hemodynamics were obtained by pressure-volume catheterization of the right heart prior to sacrifice. Hearts were assessed for fibrosis and macrophage infiltration. RNA from right ventricles were isolated and used for unbiased discovery of altered gene expression using Affymetrix Mouse Gene 2.0 arrays performed on four groups (banded or sham). LysM-Cre mouse hearts were flash-frozen whole, cross-sectioned, and assessed by microscopy for fibrosis and macrophage infiltration. Differences between groups were assessed by ANOVA and t-tests. Correlations were assessed by Spearman correlation.

RV gene expression = test: RV RNA expression arrays in PAB/sham mice (Example V); assay type: in vivo; conditions: 30 mg/kg/day, 14 days
Procedure: Following sacrifice, right ventricular hypertrophy was assessed in each animal as a percentage of heart weight. A random fraction of the right hearts were fixed in formalin for histology and examined for indices of fibrosis; other hearts were snap frozen for gene expression analysis via RNA microarray. Right hearts and lungs were collected for analysis of protein expression and gene expression array. Left lungs were fixed and stained. Platelet deposition was examined in small pulmonary artery vessels. The remaining organs were harvested and frozen in liquid nitrogen for potential gene expression analysis.
As part of this study, RNA extracted and expression analysis was performed using Mouse Genone 2.0 Affymetrix expression arrays. (FIG. 4C). The Array design was 2×2×2: Sham/Banded×Vehicle/Ifetroban×M/F. In total, there were 8 arrays; each array was a pool of RV from 3 mice. Only mice with an RVSP>30 were used for the banded groups. Banding itself altered 199 genes (ABS (Diff in averages)—Sum of standard deviations)>0.4 comparing vehicle banded to sham, and expression of 49 of those genes was enhanced by ifetroban (difference >0.4) and expression of 29 of those genes was attenuated by ifetroban (difference >0.4). […] Res., 2011 Jul. […] 15; 45(4):511-8.

[4] = test system: pulmonary artery banding (PAB) model of right ventricular pressure overload; test: PAB model of right ventricular pressure overload: hemodynamics, echocardiography, histology (Example VII); assay type: in vivo; conditions: PAB mice, low dose 3 mg/kg/day via drinking water, 2 weeks
[5] = PAB mice, 25 mg/kg/day, 2 weeks

Compound: CCCCCNC(=O)c1coc([C@H]2[C@@H](Cc3ccccc3CCC(=O)O)[C@@H]3CC[C@H]2O3)n1 [ifetroban, [1S-(1α,2α,3α,4α)]-2-[[3-[4-[(Pentylamino)carbonyl]-2-oxazolyl]-7-oxabicyclo[2.2.1]hept-2-yl]methyl]-benzenepropanoic acid]
- TP receptor expression in the RV (Western blot) ([1]; 2 weeks following PAB or drug treatment): remained constant
- phospho-SMAD2/3 associated with PAB ([1]; PAB mice versus vehicle-treated mice): less phospho-SMAD2/3
- localization of TSP-4 in RV ([1]; PAB mice, 25 mg/kg/day): increased cardiomyocyte expression of TSP-4
- α-MHC protein expression in RV (Western blot) [1, 5]: no change in α-MHC expression
- β-MHC protein expression in RV (Western blot) [1, 5]: strongly induced
- induction of the pro-fibrotic TGF-beta pathway ([1]; PAB mice, 2 weeks): blocked induction
- TSP-4 protein expression in RV ([1]; PAB mice, 2 weeks, 25 mg/kg/day): increased TSP-4 protein; also recorded: increases the expression of antifibrotic TSP-4
- TSP-4 protein expression in RV ([1]; PAB mice, 2 weeks, listed as Ifetroban, 25 mg/kg/day): increased expression of anti-fibrotic thrombospondin-4
- TSP-4 expression in RV (Western blot densitometry) ([1]; PAB mice, low dose 3 mg/kg/day, 2 weeks): does not
- PAI-1 expression or promoter activity [2]: no change
- fibrosis (heart) [3]: reduction in fibrosis
- hemodynamic markers of right heart function under load stress [3]: preserved right heart function under load stress
- recruitment of inflammatory cells [3]: reduction in recruitment of inflammatory cells
- number of the 199 banding-altered genes whose expression was attenuated (difference >0.4) (RV gene expression; banded RV pools): 29 genes
- number of the 199 banding-altered genes whose expression was enhanced (difference >0.4) (RV gene expression; banded RV pools): 49 genes
- expression of FBX032 (RV gene expression; banded RV): reduces the expression of FBX032
- expression of Nmrk2, Meox1, Nkd2, and Pkhd1 (RV gene expression; banded RV): enhances the expression of other genes
- expression of PDGF (RV gene expression; banded RV): reduces the expression of PDGF
- expression of genes involved with inhibition of TGF-Beta, Asporin and Ltbp2 (RV gene expression; banded RV): enhanced the expression
- expression of genes related to collagen and cell-cell adhesion, particularly thrombospondin-4 (Thbs4) (RV gene expression; banded RV): enhances the expression
- expression of pro-fibrotic and inflammatory genes (RV gene expression; banded mice): decreases expression
- expression of pro-muscularization genes (RV gene expression; banded mice): increases expression
- fibrosis of the right ventricle (histology) [4]: does not prevent fibrosis
